Measured values reported in US5770617A, “Terbenzimidazoles useful as antifungal agents” (Rutgers, The State University of New Jersey, priority 1997, dated 1998).
“Also recorded” adds a separate entry of the source. Blank lines part the entries; values can stand above or below the compound they belong to.

Tests used:
[1] = target: T1, Aspergillus topoisomerase I (Aspergillus nidulans, UniProt Q5BGS7); assay: Topoisomerase I cleavage assay, Aspergillus enzyme; assay type: biochemical; conditions: DNA cleavage assay
T1 construct: about 105 kDa by phosphate transfer
T1 sequence (Q5BGS7 1-871): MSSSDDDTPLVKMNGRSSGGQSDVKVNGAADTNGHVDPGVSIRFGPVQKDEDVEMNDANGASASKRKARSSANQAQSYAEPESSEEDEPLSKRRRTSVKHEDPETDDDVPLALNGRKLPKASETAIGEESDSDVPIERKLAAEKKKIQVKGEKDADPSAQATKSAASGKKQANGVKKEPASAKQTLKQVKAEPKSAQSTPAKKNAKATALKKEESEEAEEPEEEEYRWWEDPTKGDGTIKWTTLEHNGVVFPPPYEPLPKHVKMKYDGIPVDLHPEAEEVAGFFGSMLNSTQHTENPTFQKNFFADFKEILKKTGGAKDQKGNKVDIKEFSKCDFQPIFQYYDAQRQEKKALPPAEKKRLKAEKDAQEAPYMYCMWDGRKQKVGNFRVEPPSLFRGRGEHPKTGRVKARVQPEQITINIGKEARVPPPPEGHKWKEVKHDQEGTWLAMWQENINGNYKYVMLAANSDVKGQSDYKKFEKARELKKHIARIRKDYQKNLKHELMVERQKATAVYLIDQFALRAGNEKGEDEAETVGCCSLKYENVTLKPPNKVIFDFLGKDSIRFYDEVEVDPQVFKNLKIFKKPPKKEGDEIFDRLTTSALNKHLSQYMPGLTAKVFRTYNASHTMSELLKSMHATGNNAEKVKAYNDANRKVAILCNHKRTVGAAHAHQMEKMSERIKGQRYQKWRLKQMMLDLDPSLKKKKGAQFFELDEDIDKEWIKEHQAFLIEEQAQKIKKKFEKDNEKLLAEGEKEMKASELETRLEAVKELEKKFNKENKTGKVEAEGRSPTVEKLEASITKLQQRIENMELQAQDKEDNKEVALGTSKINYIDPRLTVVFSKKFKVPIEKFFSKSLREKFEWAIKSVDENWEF
Procedure: Two liters of YG medium (0.5% yeast extract and 2% glucose) were inoculated with approximately 5×10^8 conidia/ml. After 16 hours of growth at 37° C., the mycelia were collected, washed with Buffer I (50 mM Tris-HCl, pH 7.7, 1 mM EDTA, 1 mM EGTA, 10% glycerol, 1 mM phenylmethylsulfonyl fluoride and 1 mM 2-mercaptoethanol), and quickly chilled in liquid nitrogen. The frozen mycelia (approximately 20 grams) were ground to powder and resuspended in 300 ml of Buffer I. The lysate was centrifuged at 10K rpm in a Sorval HB3 Rotor for 15 minutes to remove cell debris. The supernatant was made 6% in polyethylene glycol (v/v) and 1M NaCl. After one hour on ice with gentle stirring, the solution was centrifuged at 14K rpm in a Sorvall Rotor for 30 minutes to remove nucleic acids.
Subsequent steps in purification were the same as described previously for purification of recombinant human DNA topoisomerase I (B. Gatto et al., Cancer Res., 56, 2795 (1996)). Briefly, the supernatant was chromatographed directly onto a hydroxyapatite Bio-gel HTP (BioRad Laboratories, Richmond, Calif.) column. Fractions containing relaxation activity were pooled, diluted and then loaded onto a BioRex70 column (BioRad Laboratories, Richmond, Calif.). The column was developed with a linear gradient from 0.2 to 1M KCl. The peak fractions were pooled and dialyzed overnight at 4° C. against 30 mM potassium phosphate, 50% glycerol (v/v), 0.5 mM EDTA, and 1 mM DTT. Recombinant human topoisomerase I was purified from Escherichia coli BL21 (DE3) harboring PET1B as described previously (Gatto et al., Cancer Res., 56, 2795 (1996)).
DNA topoisomerase I cleavage assays were performed as described by Y.-H. Hsiang et al., J. Biol. Chem., 260, 14873 (1985). YEpG DNA was linearized with BamHI and then 3 '-end-labeled with Klenow polymerase and α[-^32 P]dCTP. Following phenol extraction and ethanol precipitation, the labeled DNA was resuspended in 10 mM Tris, pH 8.0, and 1 mM EDTA. The DNA cleavage assay was done in a reaction mixture (20 μl) containing 40 mM Tris-HCl, pH 7.8, 100 mM KCl, 10 mM MgCl2, 0.5 mM dithiothreitol, 0.5 mM EDTA, 30 μg/ml bovine serum albumin, 20 ng of labeled YEpG DNA, and […] of Aspergillus or human topoisomerase I diluted to various extents. Following incubation at 23° C. for 15 minutes, the reactions were terminated by the addition of SDS (final concentration 1%) and proteinase K (final concentration 200 μg/ml). Proteinase K treatment continued at 37° C. for another 1 hour. The terminated reactions were either alkali-denatured and then loaded (alkaline loading) or loaded directedly in neutral loading buffer (neutral loading) onto a 1% agarose gel in neutral TPE electrophoresis solution. Gel drying and autoradiography were performed as described by Hsiang et al., cited above.

[2] = test system: yeast cells expressing human topoisomerase I; assay: Yeast cytotoxicity assay, human topoisomerase I; assay type: cell-based, S. cerevisiae
Source text: (§1) The topoisomerase I-specific in vivo cytotoxicity assay was adapted from A. M. Knab et al., J. Biol. Chem., 268, 22322 (1993). In this system, various topoisomerase I genes or cDNAs cloned into the single-copy yeast plasmid vector (YCpGAL1; Knab et al., cited above) are expressed under the control of the GAL1 promoter in the JN2-134 strain of S. cerevisiae (MAT, rad52::Leu2, trp1, ade2-1, his7, ura3-52, ise1, top1-1, and leu2; M. A. Bjornsti et al., Cancer Res., 49, 6318 (1989)). The topoisomerase I gene or cDNA constructs in the vector are, respectively, the wild-type yeast topoisomerase I gene (YCpGAL-ScTOP1; need cite (1989)), a nonfunctional topoisomerase I gene where the active site tyrosine-727 is mutated to phenylalanine (YCPGAL1-Sctop1Y727; A. M. Knab et al., J. Biol. Chem., 268, 22322 (1993)), and the wild-type human topoisomerase I cDNA (YCp-GAL-hTOP1; M. A. Bjornsti et al., Cancer Res., 49, 6318 (1989)).
(§2) To qualitatively test the cytotoxicity and the topoisomerase I specificity of the drugs, yeast cells containing the specified plasmid were grown in dropout medium supplemented with uracil, 2% galactose, and the drug being tested.

[3] = test system: yeast cells expressing yeast topoisomerase I; assay: Yeast cytotoxicity assay, yeast topoisomerase I; assay type: cell-based, S. cerevisiae
Source text: as §1, §2

[4] = test system: yeast cells expressing nonfunctional yeast topoisomerase I; assay: Yeast cytotoxicity assay, nonfunctional yeast topoisomerase I; assay type: cell-based, S. cerevisiae
Source text: as §1, §2

human topoisomerase I = target: T2, human topoisomerase I (Homo sapiens, UniProt P11387); conditions: cited from earlier work
T2 construct: made in house; host or cells: Escherichia coli BL21 (DE3) harboring PET1B
T2 sequence (P11387 1-765): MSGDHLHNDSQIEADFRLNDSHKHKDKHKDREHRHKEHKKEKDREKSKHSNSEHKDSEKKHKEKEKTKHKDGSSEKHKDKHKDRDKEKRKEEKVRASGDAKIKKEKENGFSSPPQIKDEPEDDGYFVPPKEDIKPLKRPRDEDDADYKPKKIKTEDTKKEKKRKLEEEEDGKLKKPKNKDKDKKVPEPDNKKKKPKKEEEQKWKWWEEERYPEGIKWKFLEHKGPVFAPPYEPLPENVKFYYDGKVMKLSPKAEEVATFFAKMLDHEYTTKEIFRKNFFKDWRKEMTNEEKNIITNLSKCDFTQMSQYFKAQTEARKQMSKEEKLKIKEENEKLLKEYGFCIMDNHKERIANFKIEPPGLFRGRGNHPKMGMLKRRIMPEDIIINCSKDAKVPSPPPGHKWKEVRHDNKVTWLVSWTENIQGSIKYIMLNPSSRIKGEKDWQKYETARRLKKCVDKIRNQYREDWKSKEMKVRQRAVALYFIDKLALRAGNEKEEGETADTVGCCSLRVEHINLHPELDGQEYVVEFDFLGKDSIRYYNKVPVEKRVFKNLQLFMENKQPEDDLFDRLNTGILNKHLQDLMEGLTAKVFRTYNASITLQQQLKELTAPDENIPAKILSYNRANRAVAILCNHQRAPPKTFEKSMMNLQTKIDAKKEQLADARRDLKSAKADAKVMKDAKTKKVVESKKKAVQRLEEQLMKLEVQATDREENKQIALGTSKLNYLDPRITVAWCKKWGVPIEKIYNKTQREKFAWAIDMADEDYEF

[5] = target: T3, calf thymus topoisomerase I (Bos taurus, UniProt F1MN93); assay: Topoisomerase I-mediated DNA cleavage assay (calf thymus enzyme); assay type: biochemical; conditions: for Topo I-mediated DNA cleavage (REC, Relative Effective Concentration): concentration relative to Hoechst 33342 (arbitrarily 1) producing the same cleavage on plasmid DNA, calf thymus topoisomerase I
T3 construct: DNA topoisomerase I was purified from calf thymus gland as reported previously; from tissue; host or cells: calf thymus gland
T3 sequence (F1MN93 1-767): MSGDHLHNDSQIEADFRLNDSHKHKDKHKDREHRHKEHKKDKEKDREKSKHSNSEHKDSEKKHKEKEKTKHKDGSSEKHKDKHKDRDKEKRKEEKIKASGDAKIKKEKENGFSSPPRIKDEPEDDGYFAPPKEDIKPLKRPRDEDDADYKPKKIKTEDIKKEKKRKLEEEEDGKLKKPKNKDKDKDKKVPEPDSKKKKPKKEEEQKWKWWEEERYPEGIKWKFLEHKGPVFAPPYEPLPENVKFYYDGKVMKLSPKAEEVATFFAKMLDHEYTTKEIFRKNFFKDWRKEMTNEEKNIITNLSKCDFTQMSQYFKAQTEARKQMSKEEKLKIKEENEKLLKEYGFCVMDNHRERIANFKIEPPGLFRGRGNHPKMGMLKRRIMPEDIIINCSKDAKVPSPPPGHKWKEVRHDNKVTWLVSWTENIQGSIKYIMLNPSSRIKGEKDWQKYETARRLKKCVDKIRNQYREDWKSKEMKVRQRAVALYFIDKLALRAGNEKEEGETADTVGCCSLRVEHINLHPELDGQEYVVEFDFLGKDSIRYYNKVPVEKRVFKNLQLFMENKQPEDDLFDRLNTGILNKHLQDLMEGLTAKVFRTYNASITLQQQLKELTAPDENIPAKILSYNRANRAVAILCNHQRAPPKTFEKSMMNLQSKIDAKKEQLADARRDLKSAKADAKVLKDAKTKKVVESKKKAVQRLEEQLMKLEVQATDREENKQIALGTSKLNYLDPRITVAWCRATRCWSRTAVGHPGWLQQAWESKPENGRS
Source text: A. Topoisomerase I-Mediated DNA Cleavage Assays
DNA topoisomerase I was purified from calf thymus gland as reported previously by B. D. Halligan et al., J. Biol. Chem., 260, 2475 (1985).
Plasmid YEpG was also purified by the alkali lysis method followed by phenol deproteination and CsCl/ethidium isopycnic centrifugation as described by T. Maniatis et al., Molecular Cloning, A Laboratory Manual, Cold Spring Harbor Labs, N.Y. (1982) at pages 149-185. The end-labeling of the plasmid was accomplished as previously described by L. F. Liu et al., J. Biol. Chem., 258, 15365 (1983). The cleavage assays were performed as previously reported by A. Y. Chen et al., Cancer Res., 53, 1332 (1993). Human topoisomerase I was isolated as a recombinant fusion protein using a T7 expression system.

[6] = test system: human lymphoblast RPMI 8402; assay: MTT cytotoxicity assay, RPMI 8402; assay type: cell-based
Procedure: The cytotoxicity was determined using the as MTT-microtiter plate tetrazolinium cytotoxicity assay (MTA) following the procedures of F. Denizot et al., J. Immunol. Methods, 89, 271 (1986); J. Carmichael et al., Cancer Res, 47, 936 (1987) and T. J. Mosmann et al., Immunol. Methods, 65, 55 (1983). The human lymphoblast RPMI 8402 and its camptothecin-resistant variant cell line, CPT-K5 were provided by Dr. Toshiwo Andoh (Aichi Cancer Center Research Institute, Nagoya, Japan). See, for example, T. Andoh et al., Adv. Pharmacol., 29B, 93 (1994). The cytotoxicity assay was performed using 96-well microtiter plates. Cells were grown in suspension at 37 ° C. in 5% CO2 and maintained by regular passage in RPMI medium supplemented with 10% heat inactivated fetal bovine serum, L-glutamine (2 mM), penicillin (100 U/ml), and streptomycin (0.1 mg/ml). For determination of IC50, cells were exposed continuously with varying concentrations of drug concentrations and MTT assays were performed at the end of the fourth day.

[7] = target: T4, mammalian DNA topoisomerase I (Homo sapiens, UniProt P11387); conditions: cited from earlier work
T4 sequence (P11387 1-765): T2 sequence (P11387 1-765)

Structure (SMILES): COc1cc2c[n+](C)c3c4cc5c(cc4ccc3c2cc1OC)OCO5 [nitidine]
inhibition (poisoning) of Aspergillus topoisomerase I, in words [1]: completely resistant; also recorded: did not inhibit Aspergillus topoisomerase I to any significant extent
cytotoxicity to yeast cells expressing human topoisomerase I [2]: highly cytotoxic
cytotoxicity to yeast cells expressing functional yeast topoisomerase I [3]: not cytotoxic
cytotoxicity to yeast cells expressing nonfunctional yeast topoisomerase I [4]: not cytotoxic
inhibition of human topoisomerase I, in words (known / previously disclosed) (human topoisomerase I): highly potent inhibitors

potency as topoisomerase I inhibitor compared with Hoechst 33342, in words [5]: much less active
Topo I-mediated DNA cleavage (REC, Relative Effective Concentration) [5]: 100
Structure (SMILES): CCCc1ccc2[nH]c(-c3ccc4[nH]c(-c5ccc6[nH]cnc6c5)nc4c3)nc2c1 [Compound 12, 5-Propyl-2-[2'-(benzimidazol-5"-yl)benzimidazol-5'-yl]benzimidazole]
cytotoxicity towards RPMI 8402, in words [6]: weak cytotoxicity

Structure (SMILES): O=[N+]([O-])c1ccc2nc(-c3ccc(O)cc3)[nH]c2c1 [QS/II/51]
inhibition (poisoning) of Aspergillus topoisomerase I, in words [1]: None of the mono-benzimidazoles, including QS/II/50, QS/II/51, QS/II/59A, an QS/II/9, exhibited any inhibitory effect
inhibition (poisoning) of mammalian DNA topoisomerase I, previous studies [7]: inhibitors (poisons)

Topo I-mediated DNA cleavage (REC, Relative Effective Concentration) [5]: 1
Structure (SMILES): Brc1ccc2[nH]c(-c3ccc4[nH]c(-c5ccc6[nH]cnc6c5)nc4c3)nc2c1 [JSKIV-37, 5-Bromo-2-[2'-(benzimidazol-5"-yl)benzimidazol-5'-yl]-benzimidazole]
IC50 ([6]; Homo sapiens, RPMI 8402, 96 h, read-out: Cytotoxicity IC50 RPMI): 1400 nM
